Source: paper PMC9960827, “Cloning and Characterization of Trypanosoma congolense and T. vivax Nucleoside Transporters Reveal the Potential of P1-Type Carriers for the Discovery of Broad-Spectrum Nucleoside-Based Therapeutics against Animal African Trypanosomiasis” (International Journal of Molecular Sciences, 2023)
Like-named read-outs stand apart in the source and are kept apart here. Marks after values point to notes of the source that are not given here.

How the values were obtained:
L. mexicana Cas9 = experiment: Resazurin drug sensitivity assay, LmexCas9; type: cell-based, Leishmania mexicana; conditions: read-out: LmexCas9 EC50
Description: (§1) EC50 values were determined by plotting to an equation for a sigmoid curve with variable slope (GraphPad Prism 8). All values were the average of at least three independent determinations on different days.

L. mexicana SUPKO+TcoAT1 = experiment: microbe, parasite or virus in culture; type: cell-based, Leishmania mexicana; conditions: for EC50: read-out: SUPKO+TcoAT1 EC50; for SUPKO+TcoAT1 RF (SUPKO): Resistance Factor relative to SUPKO
Description: as §1

L. mexicana SUPKO+TvxNT3 = experiment: microbe, parasite or virus in culture; type: cell-based, Leishmania mexicana; conditions: for EC50: read-out: SUPKO+TvxNT3 EC50; for SUPKO+TvxNT3 RF (SUPKO): Resistance Factor relative to SUPKO
Description: as §1

L. mexicana SUPKO = experiment: microbe, parasite or virus in culture; type: cell-based, Leishmania mexicana; conditions: for SUPKO RF (Cas9): Resistance Factor = EC50(SUPKO)/EC50(Cas9)
Description: as §1

T. congolense IL3000 [1] = experiment: Alamar Blue (resazurin) assay, T. congolense IL3000; type: cell-based, Trypanosoma congolense; conditions: read-out: T. congolense IL3000 EC50
Description: as §1

T. congolense 6C3 [2] = experiment: microbe, parasite or virus in culture; type: cell-based, Trypanosoma congolense; conditions: for EC50: diminazene resistant strain, resazurin, read-out: T. congolense 6C3 EC50; for T. congolense 6C3 RF: resistance factor = EC50 (test strain)/EC50(control strain)
Description: as §1

T.b.b. B48 = experiment: Alamar Blue (resazurin) assay, T. b. brucei B48; type: cell-based, Trypanosoma brucei brucei; conditions: read-out: T.b.b. B48 EC50
Description: as §1

T. evansi = experiment: Alamar Blue (resazurin) assay, T. evansi; type: cell-based, Trypanosoma evansi; conditions: read-out: T. evansi EC50
Description: as §1

T. equiperdum = experiment: Alamar Blue (resazurin) assay, T. equiperdum; type: cell-based, Trypanosoma equiperdum; conditions: read-out: T. equiperdum EC50
Description: as §1

[3] = Resazurin toxicity assay on human embryonic kidney cells; type: cell-based; conditions: human
Description: as §1

[4] = test system: human embryonic kidney (HEK) cells; experiment: as above; type: cell-based; conditions: for SI T. congolense: selectivity index = EC50 (HEK cells)/EC50 (T. congolense); for SI T. equiperdum: selectivity index = EC50 (HEK cells)/EC50 (T. equiperdum); for SI T. evansi: selectivity index = EC50 (HEK cells)/EC50 (T. evansi)
Description: as §1

T. vivax [5] = test system: T. vivax; set-up: method as in Mabille et al. [69]; conditions: added for comparison only; ref Mabille et al. [69]; cited from earlier work
T. vivax [6] = experiment: T. vivax EC50 (from Mabille et al.); type: cell-based, Trypanosoma vivax; conditions: from Table 8 data
[7] = molecular target: T. congolense adenosine transporter; experiment: [3H]-adenosine uptake and its inhibition in T. congolense IL3000 bloodstream forms; type: cell-based, Trypanosoma congolense; conditions: for Ki: 0.05 µM [3H]-adenosine, 30 s, IC50 converted to Ki, read-out: Ki on the transport of [3H]-adenosine; for ΔG0, Gibbs free energy of interaction: calculated from Km or Ki
Description: (§2) Uptake assays using radiolabeled trypanocides and/or nucleosides were carried out as described previously. Briefly, parasite cultures were harvested, washed twice in assay buffer (33 mM HEPES, 98 mM NaCl, 4.6 mM KCl, 0.5 mM CaCl2, 0.07 mM MgSO4, 5.8 mM NaH3PO4, 0.03 mM MgCl2, 23 mM NaHCO3, 14 mM D-glucose, pH 7.3), then resuspended and adjusted to a density of 1 × 10^8 cells/mL in assay buffer. The radiolabeled permeant in the presence or absence of different concentrations of potential inhibitors reconstituted in 100 μL assay buffer was deposited on top of 250 μL oil mix in microcentrifuge tubes; 1 × 10^7 parasites in 100 μL assay buffer were added to the tube and incubated for a pre-determined interval. The reaction was stopped by the addition of 1 mL of a high concentration of ice-cold unlabeled substrate in assay buffer (‘stop solution’) and centrifugation, or by immediate centrifugation at […] as appropriate. The microcentrifuge tubes were flash-frozen, and the bottom of each tube containing the cell pellet was cut off and transferred to a scintillation vial. Cell pellets were lysed in 2% SDS, after which scintillation fluid (Scintlogic U, Lablogic) was added, followed by overnight incubation in the dark. Scintillation was measured in a 300SL (Hidex) scintillation counter (Hidex). All the assays were conducted in triplicate and analysis was carried out using Microsoft Excel and GraphPad Prism. All kinetic parameters were obtained on at least 3 separate occasions.
(§3) The dose-dependent uptake assay allowed for the affinity of nucleoside analogs to different nucleoside transporters to be determined by measuring the extent to which the analogs compete with and inhibit the uptake of radiolabel adenosine. This allowed for the determination of biochemical parameters such as Km and Vmax through the application of the Michaelis–Menten equation V0 = Vmax([substrate]/([substrate] + Km)). The 50% Inhibitory Concentration (IC50) of the purines and pyrimidines and their analogs was determined from non-linear regression to sigmoid curves with variable slope (Prism 8), and the IC50 of the inhibitor and the Km of the labeled permeant were then used to calculate the inhibition constant (Ki) of the analogs through the Cheng–Prusoff equation: Ki = IC50/(1 + (L/Km)), where L denotes the radiolabel concentration. The calculated Ki was in turn used to determine the Gibbs free energy (ΔG^0) of the inhibitor–transporter interaction using the equation: ΔG^0 = -RTln(Ki), where R represents the gas constant and T symbolizes the absolute temperature in Kelvin [104].

TcoAT1 = type: cell-based, Trypanosoma congolense; conditions: for Ki: 0.05 µM [3H]-adenosine, 10 s, IC50 converted to Ki, read-out: Ki on the transport of [3H]-adenosine
Description: The information for the T. congolense adenosine transporter (TcoAT1) and four putative T. vivax nucleoside transporters was obtained in the TritrypDB (tritrypdb.org/tritrypdb) genome database. Primers were designed to flank each gene upstream of the 5′ end (forward) and downstream of the 3′ end (reverse) as described (primer sequences in Supplementary Table S2). Following amplification from the genomic DNA of T. congolense or T. vivax, DNA for each extracted gene was ligated into the pNUS-HcN expression vector doubly digested with NdeI using the NEBuilder kit according to the manufacturer’s instructions (New England Biolabs). Construct was transformed into competent E. coli cells, and ligation was confirmed by restriction enzyme digestion of isolated plasmid DNA followed by Sanger sequencing (Source BioScience, Nottingham, UK). Confirmed plasmids were then transfected into L. mexicana cell line in which both NT1 and NT2 were doubly knocked out (SUPKO) and derived from L. mexicana Cas9 [64] as described. Clones grown in medium containing 50 μg/mL neomycin (G418) were collected for further confirmation by PCR with genomic DNA using a forward primer of the transporter gene and a reverse primer of the plasmid.
as §2, §3

T. congolense IL3000 [8] = test system: T. congolense IL3000; set-up: method as in Hulpia et al. [38]; conditions: values marked *; ref Hulpia et al. [38]; cited from earlier work
T. congolense 6C3 [9] = test system: T. congolense 6C3; set-up: method as in Hulpia et al. [38]; conditions: values marked *; ref Hulpia et al. [38]; cited from earlier work
[10] = Leishmania mexicana, read-out: SUPKO EC50, resazurin, promastigotes
[11] = resazurin, promastigotes, read-out: SUPKO EC50
[12] = multidrug-resistant strain, resazurin

Compound | EC50 (L. mexicana Cas9; Leishmania mexicana) [nM] | EC50 (L. mexicana SUPKO+TcoAT1; Leishmania mexicana) [nM] | SUPKO+TcoAT1 RF (SUPKO) (L. mexicana SUPKO+TcoAT1) | EC50 (L. mexicana SUPKO+TvxNT3; Leishmania mexicana) [nM] | SUPKO+TvxNT3 RF (SUPKO) (L. mexicana SUPKO+TvxNT3) | EC50 (L. mexicana SUPKO; [10]) [nM] | SUPKO RF (Cas9) (L. mexicana SUPKO) | T. congolense 6C3 RF (T. congolense 6C3 [2]) | SI T. congolense [4] | SI T. equiperdum [4] | SI T. evansi [4] | EC50 (T. vivax [5]) [nM] | EC50 (L. mexicana Cas9; resazurin, promastigotes) [nM] | EC50 (L. mexicana SUPKO+TcoAT1; resazurin, promastigotes) [nM] | EC50 (L. mexicana SUPKO+TvxNT3; resazurin, promastigotes) [nM] | EC50 (L. mexicana SUPKO; [11]) [nM] | EC50 (T. congolense IL3000 [1]; BSF, resazurin) [nM] | EC50 (T. congolense 6C3 [2]) [nM] | EC50 (T. evansi; resazurin) [nM] | EC50 (T. equiperdum; resazurin) [nM] | further results
Nc1ncnc2c1c(F)cn2[C@@H]1O[C@H](CO)[C@@H](O)[C@H]1O [FH3167, 7-deaza-7-fluoroadenosine] | 96 ± 9 | 7500 ± 900 | 8.48 | 57200 ± 6800 | 1.1 | 63400 ± 5500 | 660 | 1.06 | 1.1 | 15 | 2.7 | 38 ± 6 | – | – | – | – | – | – | – | – | EC50 (T. congolense IL3000 [1]; Trypanosoma congolense, BSF, resazurin): 450 ± 620 nM; EC50 (T. congolense 6C3 [2]; Trypanosoma congolense): 480 ± 100 nM; EC50 (T.b.b. B48; Trypanosoma brucei): 160 ± 30 nM; EC50 (T. evansi; Trypanosoma evansi, resazurin): 180 ± 23 nM; EC50 (T. equiperdum; Trypanosoma equiperdum, resazurin): 32 ± 7 nM; EC50 [3]: 490 ± 50 nM
Nc1ncnc2c1c(C(F)(F)F)cn2[C@@H]1O[C@H](CO)[C@@H](O)[C@H]1O [FH6367, 7-trifluoromethyl-7-deazaadenosine] | 26100 ± 6400 | 3790 ± 340 | >26.4 | 7400 ± 1400 | >13.5 | > 100000 | >3.83 | 0.50 | 0.3 | 2.6 | 0.7 | 820 ± 90 | – | – | – | – | – | – | – | – | EC50 (T. congolense IL3000 [1]; Trypanosoma congolense): 1800 ± 440 nM; EC50 (T. congolense 6C3 [2]; Trypanosoma congolense): 890 ± 170 nM; EC50 (T.b.b. B48; Trypanosoma brucei): 900 ± 130 nM; EC50 (T. evansi; Trypanosoma evansi): 680 ± 110 nM; EC50 (T. equiperdum; Trypanosoma equiperdum): 190 ± 30 nM; EC50 [3]: 490 ± 10 nM
C#Cc1cn([C@@H]2O[C@H](CO)C[C@H]2O)c2ncnc(N)c12 [FH8505] | – | – | >1.1 | – | >1.25 | – | >1.08 | 0.46 ^a | 68 | 446 | 151 | 160 ± 10 | 92700 ± 4300 | 89900 ± 12500 | 80000 ± 7700 | > 100000 | 17 ± 2 | 8 ± 2 | 7.8 ± 2 | 2.6 ± 0.8 | fold higher EC50 against T. vivax compared to T. congolense (T. vivax [6]): 10–165 fold; EC50 (T.b.b. B48; [12]): 31 ± 4 nM; EC50 [4]: 1170 ± 60 nM
Nc1ncnc2c1c(F)cn2[C@@H]1O[C@H](CO)C[C@H]1O [FH8517] | – | – | 1.64 | – | 1.06 | – | 3.22 | 0.60 | 330 | 3310 | 431 | 500 ± 10 | 3090 ± 40 | 6100 ± 700 | 9420 ± 1410 | 9960 ± 2040 | 5.2 ± 0.3 | 3.1 ± 0.3 | 4 ± 0.6 | 0.52 ± 0.11 | Ki [7]: 98100 ± 2300 nM; ΔG0, Gibbs free energy of interaction [7]: -5.47 kcal/mol; Ki (TcoAT1): 229000 ± 15000 nM; ΔG0 (TcoAT1; Gibbs free energy of binding, from Km or Ki): -4.97 kcal/mol; EC50 (T.b.b. B48; [12]): 13 ± 2 nM; EC50 [4]: 1710 ± 110 nM
CC(C)Oc1ncnc2c1c(Cl)cn2[C@@H]1O[C@H](CO)[C@@H](O)[C@H]1O [FH9531] | – | – | – | – | – | – | – | 0.80 | – | – | – | 120 ± 10 | > 100000 | > 100000 | > 100000 | > 100000 | – | – | – | – | EC50 (T. congolense IL3000 [8]): 4040 ± 360 nM; EC50 (T. congolense 6C3 [9]): 3230 ± 360 nM
C=Cc1cn([C@@H]2O[C@H](CO)C[C@H]2O)c2ncnc(N)c12 [FH10659] | – | – | – | – | – | – | – | 0.70 | – | – | – | 1570 ± 430 | > 100000 | > 100000 | > 100000 | > 100000 | 56 ± 4 | 40 ± 3 | 38 ± 1.5 | 11 ± 1 | Ki [7]: 28500 ± 8100 nM; ΔG0, Gibbs free energy of interaction [7]: -6.19 kcal/mol; Ki (TcoAT1): 59300 ± 4300 nM; fold higher EC50 against T. vivax compared to T. congolense (T. vivax [6]): 10–165 fold
